Experimental findings from ChEMBL document CHEMBL4732064, “Structure-activity relationship studies of phenothiazine derivatives as a new class of ferroptosis inhibitors together with the therapeutic effect in an ischemic stroke model” (Eur J Med Chem, 2021) are described below.

The subject of experiment [1] is Rattus norvegicus. The experiment is described as follows: Protective activity in Sprague-Dawley rat model of middle cerebral artery occlusion-induced ischemia-reperfusion injury assessed as restoration of walking ability at 5 mg/kg, iv measured after 24 hrs of post reperfusion […]. The experiment is classed as functional, organism-based.
The target in experiment [2] is Indoleamine 2,3-dioxygenase 1 (Homo sapiens, UniProt P14902). The experiment is described as follows: Inhibition of IDO1 (unknown origin).
The subject of experiment [3] is HT-1080. The experiment is described as follows: Downregulation of GPX4 expression in erastin-induced human HT-1080 cell ferroptosis model at 1 uM after 10 hrs by Western blot analysis. Format: functional. For orientation: Immunoblotting shows a protein as a band on a membrane.
For a further experiment, the system named is THP-1. The experiment is described as follows: Protection against nigericin-induced pyroptosis in human THP-1 cells assessed as cell viability at 10 uM. Format: functional, cell-based.
Experiment [4] concerns Rattus norvegicus. Description: Protective activity in Sprague-Dawley rat model of middle cerebral artery occlusion-induced ischemia-reperfusion injury assessed as prevention of reperfusion injury at 5 mg/kg, iv measured after 24 hrs of post reperfusion by TTC staining based assay. The experiment is classed as functional, organism-based.
In experiment [5] the test system is HT-1080. Description: Inhibition of ERK expression in erastin-induced human HT-1080 cell ferroptosis model at 0.01 to 1 uM after 10 hrs by Western blot analysis. Format: functional. The settings on record: dose 0.01-1 µM.
In experiment [6] the target is T1, Alpha-1B adrenergic receptor (Homo sapiens) (UniProt P35368).
T1 sequence (whole entry): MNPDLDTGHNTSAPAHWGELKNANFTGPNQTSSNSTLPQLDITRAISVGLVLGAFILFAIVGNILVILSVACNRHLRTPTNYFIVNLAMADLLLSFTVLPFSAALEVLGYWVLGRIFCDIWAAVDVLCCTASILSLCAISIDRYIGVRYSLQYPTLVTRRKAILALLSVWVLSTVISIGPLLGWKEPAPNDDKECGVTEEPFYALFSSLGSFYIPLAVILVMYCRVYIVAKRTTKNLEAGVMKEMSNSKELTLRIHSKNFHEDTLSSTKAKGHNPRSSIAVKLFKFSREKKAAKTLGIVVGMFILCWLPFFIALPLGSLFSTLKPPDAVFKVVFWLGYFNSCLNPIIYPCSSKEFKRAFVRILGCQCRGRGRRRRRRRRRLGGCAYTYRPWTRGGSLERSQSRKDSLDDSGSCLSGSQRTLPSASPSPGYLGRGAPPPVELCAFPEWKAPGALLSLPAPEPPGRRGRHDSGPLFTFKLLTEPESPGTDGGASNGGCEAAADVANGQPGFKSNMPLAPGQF
The experiment is described as follows: Antagonist activity at ADRA1B (unknown origin) by FLIPR assay.

Experiment [7] concerns HT-1080. Description: Antioxidant activity in erastin-induced human HT-1080 cell ferroptosis model assessed as decrease in lipid ROS accumulation at 0.01 to 1 uM incubated for 8 to 24 hrs by BODIPY 581/591 C11 staining based flow cytometric analysis. The settings on record: dose 0.01-1 µM, time 8-24 hrs. The experiment is classed as functional. For orientation: A flow cytometer gives signals particle by particle.

The target in experiment [8] is T2, Histone acetyltransferase type B catalytic subunit (Homo sapiens, UniProt O14929).
T2 sequence (O14929 whole entry): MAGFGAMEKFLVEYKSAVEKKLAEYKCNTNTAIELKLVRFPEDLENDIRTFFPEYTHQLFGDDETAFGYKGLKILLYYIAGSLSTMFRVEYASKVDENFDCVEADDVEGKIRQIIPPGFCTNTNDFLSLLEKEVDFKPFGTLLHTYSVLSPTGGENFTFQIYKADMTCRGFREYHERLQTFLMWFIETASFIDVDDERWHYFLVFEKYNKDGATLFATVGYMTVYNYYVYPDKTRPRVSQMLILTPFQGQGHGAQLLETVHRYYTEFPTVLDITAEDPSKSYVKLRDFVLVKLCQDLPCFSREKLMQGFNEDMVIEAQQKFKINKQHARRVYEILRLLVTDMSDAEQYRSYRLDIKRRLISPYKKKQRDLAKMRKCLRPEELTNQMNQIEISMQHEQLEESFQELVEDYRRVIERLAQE
The experiment is described as follows: Inhibition of HAT1 (unknown origin).

The test system of experiment [9] is HT-1080. Description: Reduction in lipid oxidation level in erastin-induced human HT-1080 cell ferroptosis model assessed as decrease in MDA accumulation at 0.01 to 1 uM. The settings on record: dose 0.01-1 µM. Format: functional.
Experiment [10] relates to HT-1080. Description: Inhibition of rotenone-induced oxidative cell death in human HT-1080 cells at 10 uM incubated for 24 hrs. The experiment is classed as functional, cell-based.
Experiment [11] has as its target T3, Alpha-1A adrenergic receptor (Homo sapiens) (UniProt P35348).
T3 sequence (whole entry): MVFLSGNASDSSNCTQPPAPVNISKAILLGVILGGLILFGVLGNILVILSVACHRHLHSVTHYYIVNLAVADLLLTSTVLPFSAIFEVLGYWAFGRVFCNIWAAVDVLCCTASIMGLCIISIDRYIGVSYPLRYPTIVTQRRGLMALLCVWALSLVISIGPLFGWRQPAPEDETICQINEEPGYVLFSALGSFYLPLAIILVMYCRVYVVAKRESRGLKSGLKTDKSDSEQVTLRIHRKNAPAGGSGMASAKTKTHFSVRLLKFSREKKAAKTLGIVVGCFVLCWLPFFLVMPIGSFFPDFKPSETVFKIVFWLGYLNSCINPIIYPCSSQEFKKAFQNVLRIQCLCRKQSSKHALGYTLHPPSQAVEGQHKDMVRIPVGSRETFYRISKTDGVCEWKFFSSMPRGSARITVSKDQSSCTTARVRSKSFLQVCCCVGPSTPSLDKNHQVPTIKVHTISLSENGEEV
Description: Antagonist activity at ADRA1A (unknown origin) by FLIPR assay.

Experiment [12] relates to HT-1080. Description: Inhibition of LOX expression in erastin-induced human HT-1080 cell ferroptosis model at 0.01 to 1 uM after 10 hrs by Western blot analysis. The experiment is classed as functional. Conditions: dose 0.01-1 µM.
Experiment [13] deals with HT-1080. The experiment is described as follows: Increase in GSH level in erastin-induced human HT-1080 cell ferroptosis model at 0.01 to 1 uM. The settings on record: dose 0.01-1 µM. Format: functional.
For experiment [14], the target named is 5-hydroxytryptamine receptor 2A (Homo sapiens) (UniProt P28223). Description: Antagonist activity at HTR2A (unknown origin) by FLIPR assay.
In experiment [15] the test system is HT-1080. The experiment is described as follows: Downregulation of GPX4 expression in erastin-induced human HT-1080 cell ferroptosis model at 0.01 to 1 uM after 10 hrs by Western blot analysis. The experiment is classed as functional. The settings on record: dose 0.01-1 µM.
For experiment [16], the system named is HT-1080. The experiment is described as follows: Inhibition of H2O2-induced oxidative cell death in human HT-1080 cells at 10 uM incubated for 24 hrs. The experiment is classed as functional, cell-based.
A short description of experiment [17]: Metal chelating activity assessed as iron chelation.
Experiment [18] relates to Rattus norvegicus. Description: Protective activity in Sprague-Dawley rat model of middle cerebral artery occlusion-induced ischemia-reperfusion injury assessed as decrease in cerebral infarction volume at 5 mg/kg, iv measured after 24 hrs of post reperfusion by TTC staining based assay. The experiment is classed as functional, organism-based.
For experiment [19], the system named is HT-1080. Description: Inhibition of erastin-induced ferroptosis in human HT-1080 cells assessed as cell viability incubated for 48 hrs by MTT assay. The experiment is classed as functional, cell-based. The settings on record: HT-1080, 48 h.
Experiment [20] deals with HT-1080. The experiment is described as follows: Inhibition of staurosporine-induced apoptotic cell death in human HT-1080 cells assessed as cell viability at 10 uM. The experiment is classed as functional, cell-based.
Experiment [21] can be described thus: Antioxidant activity assessed as DPPH radical scavenging activity at 0.05 mM incubated for 10 mins. Format: functional. (In general: The DPPH test is a chemical assay of radical scavenging.)
Experiment [22] concerns the target Muscarinic acetylcholine receptor M3 (Homo sapiens) (UniProt P20309). Description: Antagonist activity at CHRM3 (unknown origin) by FLIPR assay.
Another experiment deals with BXPC-3. The experiment is described as follows: Inhibition of erastin-induced ferroptosis in human BXPC-3 cells assessed as cell viability incubated for 48 hrs by MTT assay. The experiment is classed as functional, cell-based. Conditions: BXPC-3, 48 h.

SMILES strings stand for the structures. Activity calls are given as the source filed them. The rule behind the calls is not given here. Some results are limits rather than exact numbers.

Chain of 5-hydroxytryptamine receptor 2A (Homo sapiens) (P28223 whole entry): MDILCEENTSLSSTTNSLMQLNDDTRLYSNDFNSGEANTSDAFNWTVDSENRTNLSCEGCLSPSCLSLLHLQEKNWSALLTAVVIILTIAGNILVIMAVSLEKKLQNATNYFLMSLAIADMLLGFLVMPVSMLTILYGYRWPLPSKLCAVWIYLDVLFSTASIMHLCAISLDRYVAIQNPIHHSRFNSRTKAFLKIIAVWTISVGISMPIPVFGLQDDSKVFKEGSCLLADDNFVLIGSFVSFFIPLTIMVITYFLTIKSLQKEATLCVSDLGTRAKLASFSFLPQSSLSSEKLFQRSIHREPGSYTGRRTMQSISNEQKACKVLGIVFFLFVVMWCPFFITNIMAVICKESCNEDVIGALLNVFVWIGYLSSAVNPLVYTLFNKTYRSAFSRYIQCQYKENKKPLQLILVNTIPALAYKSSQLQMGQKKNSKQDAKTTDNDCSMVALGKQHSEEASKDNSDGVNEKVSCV
Chain of Muscarinic acetylcholine receptor M3 (Homo sapiens) (P20309 whole entry, looked up): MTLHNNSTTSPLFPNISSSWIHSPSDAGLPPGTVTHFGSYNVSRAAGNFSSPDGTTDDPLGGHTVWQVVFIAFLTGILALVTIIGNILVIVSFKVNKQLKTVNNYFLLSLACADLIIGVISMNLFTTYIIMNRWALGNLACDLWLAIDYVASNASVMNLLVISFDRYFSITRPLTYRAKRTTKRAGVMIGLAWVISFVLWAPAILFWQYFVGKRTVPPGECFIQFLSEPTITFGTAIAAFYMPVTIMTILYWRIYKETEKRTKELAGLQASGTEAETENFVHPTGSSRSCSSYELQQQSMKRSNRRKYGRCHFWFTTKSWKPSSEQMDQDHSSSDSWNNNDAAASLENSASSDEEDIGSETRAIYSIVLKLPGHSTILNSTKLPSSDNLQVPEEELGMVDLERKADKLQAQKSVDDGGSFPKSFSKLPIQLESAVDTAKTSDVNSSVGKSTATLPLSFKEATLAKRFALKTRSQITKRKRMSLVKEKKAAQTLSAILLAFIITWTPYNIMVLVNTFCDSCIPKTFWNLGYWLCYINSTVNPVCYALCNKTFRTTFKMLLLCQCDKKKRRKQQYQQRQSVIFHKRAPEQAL
Chain of Indoleamine 2,3-dioxygenase 1 (P14902 whole entry): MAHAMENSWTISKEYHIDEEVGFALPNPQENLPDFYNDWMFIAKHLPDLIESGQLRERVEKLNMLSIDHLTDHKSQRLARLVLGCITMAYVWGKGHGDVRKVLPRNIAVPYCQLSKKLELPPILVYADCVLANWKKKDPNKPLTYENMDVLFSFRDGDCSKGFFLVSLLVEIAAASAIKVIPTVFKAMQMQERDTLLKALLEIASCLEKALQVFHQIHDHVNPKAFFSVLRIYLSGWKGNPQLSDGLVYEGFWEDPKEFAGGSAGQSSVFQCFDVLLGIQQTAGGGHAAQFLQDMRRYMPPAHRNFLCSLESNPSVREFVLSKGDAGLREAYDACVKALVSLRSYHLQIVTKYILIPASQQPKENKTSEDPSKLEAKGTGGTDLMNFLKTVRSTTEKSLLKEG

For the compound `CC(c1ccc(N2CCN(C)CC2)cc1)c1ccc2c(c1)Nc1ccccc1S2` (centres undefined), the outcome with Rattus norvegicus [1], in the experiment with Rattus norvegicus [4], in the experiment on HT-1080 [7], with HT-1080 [9], in the experiment on HT-1080 [13] and in the experiment with Rattus norvegicus [18] was Active. In experiment [21], the result was Active. Besides, the half-inhibitory concentration (IC50) in experiment [2] and in experiment [8] was > 10000 nM throughout. Besides, the result (with HT-1080 [3]; in the experiment on THP-1; in [6]; in [11]; in experiment [14]; in the experiment on HT-1080 [15]) was inactive. Further, the result (in the experiment with HT-1080 [16]; in [17]; in the experiment with HT-1080 [20]; in [22]) was inactive. Also, the inhibition result with HT-1080 [5], with HT-1080 [10] and with HT-1080 [12] was “inactive” throughout. Moreover, the half-maximal effective concentration (EC50) was 0.5 nM in the experiment on HT-1080 [19] and 2.92 nM with BXPC-3.

The term IC50 denotes the concentration that gives 50% inhibition. Higher therefore signals weaker potency. Usually EC50 stands for the concentration giving half of the maximal effect.
